Organism: Rattus norvegicus
Test: Open TG-GATES - Regimen: Daily Repeat
Assay type: toxicity, organism-based, Sprague-Dawley
Set-up: regimen Daily Repeat, gender Male, age 6 weeks
Conditions: in vivo, po, route gavage; for APTT / Bas / Eos / Fbg / Ht / MCHC / MCV / Mono / Neu / PT / RBC / Ret / MCH: tissue Blood; for KIDNEY_L / KIDNEY_R / KIDNEY_TOTAL: tissue Kidney; for ALP / ALT / AST / BUN / CRE / Ca / Cl / DBIL / GLC / IP / K / LDH / Na / RALB / TBIL / TC / TG / TP / gamma-GTP / PL: tissue Plasma
[1] = 60 mg/kg, 72 h, dose level Low, time 3 day
[2] = 60 mg/kg, […], dose level Low, time 7 day
[3] = 60 mg/kg, […], dose level Low, time 14 day
[4] = 60 mg/kg, […], dose level Low, time 28 day

CC(=O)Nc1nnc(S(N)(=O)=O)s1 [ACETAZOLAMIDE]
TERMINAL_BW [1]: 226.3 g
APTT [1]: 20.3 s
Bas [1]: 0%
Eos [1]: 1%
Fbg [1]: 272.8 mg/dL
Ht [1]: 39.2%
MCHC [1]: 34%
MCV [1]: 60.6 fL
Mono [1]: 2.6%
Neu [1]: 15.4%
PT [1]: 16.8 s
RBC [1]: 648.4 x10_4/ul
Ret [1]: 5.3%
KIDNEY_L [1]: 1 g
KIDNEY_R [1]: 1 g
KIDNEY_TOTAL [1]: 2 g
ALP [1]: 1702 IU/L
ALT [1]: 42.2 IU/L
AST [1]: 67.4 IU/L
BUN [1]: 17 mg/dL
CRE [1]: 0.2 mg/dL
Ca [1]: 10.6 mg/dL
Cl [1]: 106.4 meq/L
DBIL [1]: 0 mg/dL
GLC [1]: 185.4 mg/dL
IP [1]: 7.3 mg/dL
K [1]: 4.1 meq/L
LDH [1]: 188.6 IU/L
Na [1]: 142.8 meq/L
RALB [1]: 2.9 g/dL
TBIL [1]: 0 mg/dL
TC [1]: 73.6 mg/dL
TG [1]: 137.8 mg/dL
TP [1]: 5.2 g/dL
gamma-GTP [1]: 1.4 IU/L
TERMINAL_BW [2]: 265.9 g
TERMINAL_BW [3]: 293.1 g
TERMINAL_BW [4]: 367.2 g
APTT [2]: 20.2 s
Bas [2]: 0%
Eos [2]: 0.8%
Fbg [2]: 299.4 mg/dL
Ht [2]: 37%
MCH [2]: 21.7 pg
MCV [2]: 61 fL
Mono [2]: 2.4%
Neu [2]: 13.4%
PT [2]: 16.1 s
RBC [2]: 606.4 x10_4/ul
Ret [2]: 6.9%
APTT [3]: 22.7 s
Bas [3]: 0%
Eos [3]: 0.8%
Fbg [3]: 302.4 mg/dL
MCHC [3]: 35.9%
MCV [3]: 57.5 fL
Mono [3]: 2.2%
Neu [3]: 12.8%
RBC [3]: 687.6 x10_4/ul
Ret [3]: 4.3%
APTT [4]: 23.2 s
Bas [4]: 0%
Eos [4]: 1%
Fbg [4]: 311 mg/dL
Ht [4]: 42.3%
MCH [4]: 19.2 pg
MCHC [4]: 34.3%
MCV [4]: 56 fL
Mono [4]: 1.6%
Neu [4]: 12%
RBC [4]: 755.4 x10_4/ul
Ret [4]: 2.9%
KIDNEY_L [2]: 1.2 g
KIDNEY_R [2]: 1.3 g
KIDNEY_TOTAL [2]: 2.5 g
KIDNEY_L [3]: 1.2 g
KIDNEY_R [3]: 1.2 g
KIDNEY_TOTAL [3]: 2.4 g
KIDNEY_L [4]: 1.4 g
KIDNEY_R [4]: 1.5 g
KIDNEY_TOTAL [4]: 2.9 g
ALP [2]: 1603.6 IU/L
ALT [2]: 40.6 IU/L
AST [2]: 69 IU/L
BUN [2]: 19.6 mg/dL
CRE [2]: 0.1 mg/dL
Ca [2]: 10.6 mg/dL
Cl [2]: 107.4 meq/L
DBIL [2]: 0 mg/dL
GLC [2]: 192.2 mg/dL
IP [2]: 7.2 mg/dL
K [2]: 4.2 meq/L
LDH [2]: 140.4 IU/L
Na [2]: 143.8 meq/L
PL [2]: 139.6 mg/dL
RALB [2]: 3 g/dL
TBIL [2]: 0.002 mg/dL
TC [2]: 71.8 mg/dL
TG [2]: 127 mg/dL
TP [2]: 5.2 g/dL
gamma-GTP [2]: 1.8 IU/L
ALP [3]: 1453.4 IU/L
ALT [3]: 41.2 IU/L
AST [3]: 65 IU/L
BUN [3]: 17 mg/dL
CRE [3]: 0.2 mg/dL
Ca [3]: 10.5 mg/dL
Cl [3]: 105.8 meq/L
DBIL [3]: 0 mg/dL
GLC [3]: 185.2 mg/dL
IP [3]: 6.7 mg/dL
K [3]: 3.8 meq/L
LDH [3]: 123.6 IU/L
Na [3]: 144 meq/L
PL [3]: 140.8 mg/dL
RALB [3]: 3 g/dL
TBIL [3]: 0.002 mg/dL
TC [3]: 65.8 mg/dL
TG [3]: 152.6 mg/dL
TP [3]: 5.5 g/dL
gamma-GTP [3]: 2 IU/L
ALP [4]: 1253 IU/L
ALT [4]: 41 IU/L
AST [4]: 63 IU/L
BUN [4]: 19 mg/dL
CRE [4]: 0.2 mg/dL
Ca [4]: 10.5 mg/dL
Cl [4]: 106.8 meq/L
DBIL [4]: 0 mg/dL
GLC [4]: 184.2 mg/dL
IP [4]: 6.2 mg/dL
K [4]: 4 meq/L
LDH [4]: 129 IU/L
Na [4]: 143 meq/L
PL [4]: 142.8 mg/dL
RALB [4]: 3.1 g/dL
TBIL [4]: 0.002 mg/dL
TC [4]: 70.8 mg/dL
TG [4]: 159.2 mg/dL
TP [4]: 5.9 g/dL
gamma-GTP [4]: 2.2 IU/L
TERMINAL_BW (200 mg/kg, 72 h, dose level Middle, time 3 day): 215.5 g

Source: ChEMBL document CHEMBL3885861, “Open TG-GATES”
